Assay results as given in US20230045245A1, “HETEROCYCLIC COMPOUND OR SALT THEREOF, ACTIVE MATERIAL, ELECTROLYTIC SOLUTION AND REDOX FLOW BATTERY” (NIPPON KAYAKU KABUSHIKI KAISHA, priority 2020, published 2023).
Where two headings read alike, the source gives them in different places.

How the values were obtained:
[1] = Solubility to water calculated from UV-visible absorbance; settings: for Solubility (%): saturated solution in water, diluted with standard buffer pH 6.86 (25° C.), absorbance at maximum absorption wavelength 300-550 nm, calibration curve
Experimental: (§1) The measurement of the absorbance used an ultraviolet-visible spectrometer (UV-1700, manufactured by Shimadzu Corp.). Solutions of known concentrations of a sample were prepared by using a standard buffer solution (manufactured by Fujifilm Wako Pure Chemical Corp., a neutral phosphate salt pH standard solution, pH: 6.86 (25° C.)), and the absorbances at the maximum absorption wavelength in the wavelength region of 300 nm to 550 nm were measured by the ultraviolet-visible spectrometer. A calibration curve was fabricated from the obtained absorbances and the concentrations. Then, a saturated solution of the sample was prepared by using water and was diluted by using the standard buffer solution. The absorbance at the maximum absorption wavelength was measured and the solubility (%) was calculated from the calibration curve. The density of the solution was assumed to be 1.0 g/cm^3 and the solubility (mol/L) was calculated.

[2] = pH 6.86
Experimental: as §1

[3] = water, thermodynamic from solid
[4] = solubility to water, calculated from solubility (%), density of the solution assumed to be 1.0 g/cm^3

Row | SMILES | Solubility (%) [1] [%] | solubility [1, 3] [mM] | solubility [1, 4] [mM] | Solubility (%) [2] [%]
1 | O=C1C(SCCCS(=O)(=O)[O-])=C(SCCCS(=O)(=O)[O-])C(=O)c2ccccc21.[K+].[K+] [formula (2-1)] | 36.6 | 670 | – | –
2 | O=C1c2cccc(S(=O)(=O)[O-])c2C(=O)c2c1cccc2S(=O)(=O)[O-].[K+].[K+] [9,10-anthraquinone-1,8-disulfonic acid (K), reference compound] | 0.2 | – | 4 | –
3 | O=C1c2cccc(S(=O)(=O)[O-])c2C(=O)c2cccc(S(=O)(=O)[O-])c21.[Na+].[Na+] [9,10-anthraquinone-1,5-disulfonic acid (Na), reference compound] | 2.7 | – | 70 | –
4 | O=C1c2ccccc2C(=O)c2cc(S(=O)(=O)[O-])ccc21.[Na+] [9,10-anthraquinone-2-sulfonic acid (Na)] | – | – | – | 0.7
5 | O=C1c2ccccc2C(=O)c2c1cc(OCCCS(=O)(=O)[O-])c(OCCCS(=O)(=O)[O-])c2OCCCS(=O)(=O)[O-].[Na+].[Na+].[Na+] [formula (3-3)] | 35.3 | 510 | – | –
6 | O=C([O-])COc1cc2c(c(OCC(=O)[O-])c1OCC(=O)[O-])C(=O)c1cc(OCC(=O)[O-])c(OCC(=O)[O-])c(OCC(=O)[O-])c1C2=O.[K+].[K+].[K+].[K+].[K+].[K+] [formula (3-2)] | 17.7 | 200 | – | –
7 | O=C1c2cc(OCCOCCOCCO)c(O)c(OCCOCCOCCO)c2C(=O)c2cc(OCCOCCOCCO)c(O)c(OCCOCCOCCO)c21 [formula (3-5)] | 41.8 | 500 | – | –
